Results reported in patent US20230416168A1 (EUROCHEM ANTWERPEN, priority 2020, published 2023).
Like-named read-outs stand apart in the source and are kept apart here.

Columns and labels:
[1] = tested on: Nitrosomonas europaea; test: Nitrification inhibition assay with Nitrosomonas europaea (nitrite level after 24 h); type: cell-based; details: for IC50 / activity at 100 µM / activity at 50 µM: Nitrosomonas europaea; for activity at 100 µM / activity at 50 µM: 24 h, read-out: Nitrification (%) at tested concentration (0 = maximum activity); for activity at 50 µM: tested concentration 50 μM
Description: (§1) The compounds of formula (I) and (II) and (III)/(IV) were tested for their nitrification inhibition effect in two screens, using assays with the nitrifying bacteria N. europaea and N. multiformis. In practice, ammonium and candidate nitrification inhibitors (at 100 μM) were added to a dense bacterial culture in multiwell culture plates and after 24 h of incubation, the nitrite level was measured. To normalize for differences between batches of cultures and multiwell culture plates, for each well a relative nitrification was calculated that was normalized towards both the negative and positive controls (see “Material and Methods” below for full details).
(§2) Nitrite (NO2−) was measured using the Griess reagent (Product number: G4410, Griess reagent (modified), Sigma-Aldrich). Equal volumes of the sample or a diluted sample and the Griess reagent were mixed a transparent flat bottom multi-well plate and incubated in the dark at room temperature for 10 minutes. Absorbance values at 540 nm were measured spectrophotometrically (EnVision, Perkin Elmer®) and used to calculate the [NO2−] by use of a standard curve.
To prepare a high-throughput nitrification inhibition assay using N. europaea, late-log phase cultures were subcultivated two days before the assay. Just before the assay, the cultures were 5 times overconcentrated with fresh growth medium after centrifugation (4000 rpm, 15 min, 5° C.) in 50 mL centrifuge tubes (Cat. No. 430829, CentriStar™ Conical Centrifuge Tubes, Corning®). Per batch, all the cultures were pooled in one sterile Schott bottle and subsequently dispensed into 384-well plates (Cat. No. 781086, CELL-STAR® plate, Greiner Bio-One; 50 μl/well) by use of a dispenser (Multidrop™ Combi Reagent Dispenser, Thermo Scientific™) that was first flushed with growth medium. Specifically for the high-throughput screen for new nitrification inhibitors, 0.5 μl of 99.99% DMSO (negative control—final concentration 1%) was added to the outer two columns on the left side of the plate and 0.5 μl of 10 mM DMP (3,4-dimethylpyrazole, positive control—final concentration 100 μM) was added to the outer two columns on the right side manually. Finally, 0.5 μl of candidate nitrification inhibitors (5 mM stock solutions in 99.99% DMSO—final concentration 50 μM) were added to the central wells using a pin tool on a Tecan robot (Freedom EVO®, Tecan). In between additions, the pins were washed in sequence with 99.5% DMSO, MilliQ water and 100% ethanol and air-dried. All plates were separately wrapped in Parafilm. Stacks of 4 plates were put on top of a 96-well plate filled with 100 μl MilliQ per well, covered with aluminum foil and shaken at 150 rpm at 28° C. 24 h later, NO2− production was assessed. For this, the samples were first 200 times diluted by pipetting 1.5 μl of samples into 300 μl of fresh growth medium in intermediate plates (Cat. No. 353077, Falcon® 96-well Clear Round Bottom Microplate, Corning®), to then mix 15 μl of the diluted samples with 15 μl Griess reagent in the wells of a transparent, flat bottom 384-well plate (Cat. No. X^7001, Low Profile Microplate, Molecular Devices) that was measured spectrophotometrically at 540 nm (EnVision, Perkin Elmer®).
(§3) To assess the efficacy of the compounds (in terms of nitrification inhibition) and to enable comparison between plates and batches of cultures, we calculated the relative nitrification. More in detail, all nitrite results were normalized towards both a negative control, containing no compound, and a positive control, containing the benchmark (100 μM DMP), using Equation 1. This normalization was done per multi-well plate and each plate contained 32 positive and 32 negative controls.
IC50 values, that is the concentration that inhibits 50% of the nitrification, were calculated after fitting a logistic curve to 8-point dose response data, using doses between 2 and 100 μM with 1.75 fold steps. […]

[2] = tested on: Nitrosospira multiformis; test: Nitrification inhibition assay with Nitrosospira multiformis (nitrite level after 24 h); type: cell-based; details: for IC50 / activity at 100 µM / activity at 50 µM: Nitrosospira multiformis; for activity at 100 µM / activity at 50 µM: 24 h, read-out: Nitrification at tested concentration (0 = maximum activity); for activity at 50 µM: tested concentration 50 μM
Description: as §1, §2
Cultures were first 5 times overconcentrated in fresh 181-medium by centrifugation (4000 rpm, 15 min, 5° C.) in 50 mL centrifuge tubes (Cat. No. 430829, CentriStar™ Conical Centrifuge Tubes, Corning®). Per batch, all the cultures were pooled in one sterile Schott bottle and subsequently dispensed in 384-well plates (Cat. No. 781086, CELLSTAR® plate, Greiner BioOne; 50 μl/well) by use of a dispenser (Multidrop™ Combi Reagent Dispenser, Thermo Scientific™) that was first flushed with 181-medium. 0.5 μl of 99.99% DMSO (negative control—final concentration […] was added to the outer two columns on the left side of the plate and 0.5 μl of 10 mM DMP (3,4-dimethylpyrazole, positive control—final concentration 100 μM) was added to the outer two columns on the right side manually. Finally, 0.5 μl of candidate nitrification inhibitors (5 mM stock solutions in 99.99% DMSO—final concentration 50 μM) were added to the central wells using a pin tool on a Tecan robot (Freedom EVO®, Tecan). In between additions, the pins were washed in sequence with 99.5% DMSO, MilliQ water and 100% ethanol and air-dried. All plates were separately wrapped in Parafilm. Stacks of 4 plates were put on top of a 96-well plate filled with 100 μl MilliQ per well, covered with aluminum foil and shaken (±150 rpm) at 30° C. 24 h later, NO2− production was assessed. For this, the samples were first 100 times diluted by pipetting 3 μl of samples into 300 μl fresh growth medium in intermediate plates (Cat. No. 353077, Falcon® 96-well Clear Round Bottom Microplate, Corning®) to then mix 15 μl of the diluted samples with 15 μl Griess reagent in the wells of a transparent, flat bottom 384-well plate (Cat. No. X^7001, Low Profile Microplate, Molecular Devices) that was measured spectrophotometrically at 540 nm (EnVision, Perkin Elmer®).
as §3
IC50 values, that is the concentration that inhibits 50% of the nitrification, were calculated after fitting a logistic curve to 8-point dose response data, using doses between 2 and 100 μM with 1.75 fold steps. If a concentration of 2 μM already inhibited nitrification, the IC50 value could not be calculated. In that case, IC50 values represent the dose that gives inhibition closest to 50%.
The compounds of formula (I) and (II) were tested for their nitrification inhibition effect in two screens, using assays with the nitrifying bacteria N. europaea and N. multiformis. […]

[3] = 8-point dose response, 2 to 100 μM, read-out: IC50
[4] = tested concentration 100 μM, normalized to DMSO (100%) and 100 μM DMP (0%)
[5] = normalized to DMSO (100%) and 100 μM DMP (0%)

| SMILES | IC50 [1, 3] [µM] | IC50 [2, 3] [µM] | activity at 100 µM [1, 4] [%] | activity at 100 µM [2, 4] [%] | also measured |
| --- | --- | --- | --- | --- | --- |
| CCN(CN1CCSC1=S)C1CC1 [Example 2] | < 2 | < 2 | 0 | 0 |  |
| CC1CSC(=S)N1 (centres unmarked) [Example 3] | < 3.5 | < 2 | 0 | 0 |  |
| CC1CNC(=S)S1 (centres unmarked) [Example 4] |  |  |  |  | IC50 [1]: < 2 µM; activity at 100 µM [1]: 0%; IC50 [2]: < 2 µM; activity at 100 µM [2]: 0% |
| O=C1NCCS1 [Example 8] | < 100 | < 100 | 47 | 31 |  |
| O=C(CSC1=NCCS1)NCc1cc(Br)cs1 [Example 11] |  | < 20 |  | 0 |  |
| COc1cccc(-c2nc(CSC3=NCCS3)cs2)c1OC [Example 12] | < 100 | < 20 | 0 | 11 |  |
| CCn1c(CSC2=NCCS2)nc2cc(F)ccc21 [Example 13] |  |  |  |  | activity at 50 µM [1, 5]: 73%; activity at 50 µM [2, 5]: 0% |
| CC1CSC(SCc2cc(=O)n3ccsc3n2)=N1 (centres unmarked) [Example 14] | < 57 | < 20 | 0 | 0 |  |
| COc1cc(C(=O)CSC2=NCCS2)cc(OC)c1OC [Example 15] |  |  |  |  | activity at 50 µM [1, 5]: 78%; activity at 50 µM [2, 5]: 13% |
| Cc1cccc(CSC2=NCCS2)c1 [Example 17] |  |  |  |  | activity at 50 µM [1, 5]: 100%; activity at 50 µM [2, 5]: 36% |
| COc1ccccc1Nc1nc(N)nc(CSC2=NCCS2)n1 [Example 20] |  |  |  |  | activity at 50 µM [1, 5]: 79%; activity at 50 µM [2, 5]: 42% |
| Cc1csc(=S)[nH]1 [Example 26, 4-methyl-1,3-thiazole-2-thiol] | 38 | 2.1 | 0 | 0 | Average nitrification [%] in Nitrosomonas europaea ([1]; 2 μM): 91%; Average nitrification [%] in Nitrosomonas europaea ([1]; 3.5 μM): 84%; Average nitrification [%] in Nitrosomonas europaea ([1]; 6 μM): 80%; Average nitrification [%] in Nitrosomonas europaea ([1]; 11 μM): 83%; Average nitrification [%] in Nitrosomonas europaea ([1]; 19 μM): 78%; Average nitrification [%] in Nitrosomonas europaea ([1]; 33 μM): 71%; Average nitrification [%] in Nitrosomonas europaea ([1]; 57 μM): 50%; Average nitrification [%] in Nitrosomonas europaea ([1]; 100 μM): 0%; Average nitrification [%] in Nitrosospira multiformis ([2]; 2 μM): 51%; Average nitrification [%] in Nitrosospira multiformis ([2]; 3.5 μM): 27%; Average nitrification [%] in Nitrosospira multiformis ([2]; 6 μM): 6%; Average nitrification [%] in Nitrosospira multiformis ([2]; 11 μM): 2%; Average nitrification [%] in Nitrosospira multiformis ([2]; 19 μM): 0%; Average nitrification [%] in Nitrosospira multiformis ([2]; 33 μM): 0%; Average nitrification [%] in Nitrosospira multiformis ([2]; 57 μM): 0%; Average nitrification [%] in Nitrosospira multiformis ([2]; 100 μM): 0% |
| CCSc1nc(CC(=O)O)cs1 [Example 27] | > 100 | > 100 | 62 | 77 |  |
| S=c1[nH]cc(Cc2ccccc2)s1 [Example 28] | > 100 | 12 | 65 | 0 |  |
| CSc1nc(N)c(C#N)s1 [Example 29] | 28 | > 100 | 0 | 61 |  |
| S=c1[nH]c(-c2ccccc2)cs1 [Example 30] | 42 | 36 | 21 | 0 |  |
| Oc1csc(=S)[nH]1 [Example 31] | 14 | 16 | 12 | 11 |  |
| CSC1=NCCO1 [Example 41] |  |  |  |  | IC50 [1]: > 100 µM; activity at 100 µM [1]: 88%; IC50 [2]: > 100 µM; activity at 100 µM [2]: 68% |

Now from value to molecule, other results behind:

| IC50 [1, 3] [µM] | IC50 [2, 3] [µM] | SMILES | activity at 100 µM [1, 4] [%] | activity at 100 µM [2, 4] [%] | also measured |
| --- | --- | --- | --- | --- | --- |
| < 100 | > 100 | CSc1nc(Br)cs1 [Example 32] | 46 | 75 |  |
| > 100 | > 100 | CSc1ncc(Br)s1 [Example 33] | 68 | 64 |  |
| 52 | 11 | S=c1[nH]c(C2CC2)cs1 [Example 34] | 0 | 0 |  |
| 43 | 3 | Cc1[nH]c(=S)sc1C [Example 35] | 12 | 0 |  |
| 16 | 49 | S=c1[nH]c(C2CCCCC2)cs1 [Example 36] | 0 | 15 |  |
| > 100 | 44 | NCCCSc1nccs1 [Example 37] | 58 | 7 |  |
| > 100 | > 100 | Cc1csc(SC2CCCCC2)n1 [Example 38] | 92 | 53 |  |
| 4 | 3 | S=c1[nH]cco1 [Example 40] | 0 | 0 |  |
| 68 | < 57 | S=C1NC(c2ccccc2)CO1 (centres unmarked) [Example 42] | 40 | 12 |  |
| 7 | 20 | CC1(C)COC(=S)N1 [Example 43] | 0 | 0 |  |
| 2 | 24 | C=CC1CNC(=S)O1 (centres unmarked) [Example 44] | 0 | 0 |  |
